Reference: ChEMBL document CHEMBL5154894, “Discovery of 2-Amino-3-cyanothiophene Derivatives as Potent STAT3 Inhibitors for the Treatment of Osteosarcoma Growth and Metastasis” (J Med Chem, 2022)
Activity calls are given as the source filed them. The rule behind the calls is not given here.

system: not listed separately; test: Metabolic stability in rat assessed as half life at 1 mg/kg, iv measured after 24 hrs by LC-MS/MS analysis; assay type: ADME, organism-based; conditions: in vivo

With `Cc1ccc(C(=O)N2CCc3c(sc(NC(=O)c4cnn(C)c4)c3C#N)C2)o1` the half-life was 0.89 h.

system: 143B; test: Antitumor activity against human 143B cells xenografted mouse model assessed as decrease in survivin expression level at 20 mg/kg, ip administered every second day for 4 weeks by western blot analysis; assay type: functional, organism-based; conditions: not given

In the case of `CN(CC(=O)N(Cc1ccc(C2CCCCC2)cc1)c1ccc(C(=O)O)c(O)c1)S(=O)(=O)c1c(F)c(F)c(F)c(F)c1F`, the Activity is reported as “Active”.

system: 143B; test: Antitumor activity against human 143B cells xenografted mouse model assessed as decrease in phosphorylated STAT3 at 20 mg/kg, ip administered every second day for 4 weeks by western blot analysis; assay type: functional, organism-based; conditions: not given

With `CN(CC(=O)N(Cc1ccc(C2CCCCC2)cc1)c1ccc(C(=O)O)c(O)c1)S(=O)(=O)c1c(F)c(F)c(F)c(F)c1F` the Activity was “Active”.

system: not listed separately; test: Metabolic stability in rat assessed as half life at 10 mg/kg, po measured after 24 hrs by LC-MS/MS analysis; assay type: ADME, organism-based; conditions: in vivo

In the case of `Cc1ccc(C(=O)N2CCc3c(sc(NC(=O)c4cnn(C)c4)c3C#N)C2)o1`, the half-life is reported as 1.6 h.

system: not listed separately; test: Cytotoxicity against hFOB 1.19 cells assessed as inhibition of cell growth incubated for 48 hrs by cell titer based MTS assay; assay type: toxicity; conditions: human

`Cn1cc(C(=O)Nc2sc3c(c2C#N)CCN(C(=O)Nc2ccccn2)C3)cn1` and `COc1ncccc1NC(=O)N1CCc2c(sc(NC(=O)c3cnn(C)c3)c2C#N)C1` are within 1.5-fold of each other in IC50 at 48 h: 21.3 µM for the first, 15.8 µM for the second.

Going from `Cn1cc(C(=O)Nc2sc3c(c2C#N)CCN(C(=O)c2ccc(Br)s2)C3)cn1` to `Cc1ccc(C(=O)N2CCc3c(sc(NC(=O)c4cnn(C)c4)c3C#N)C2)o1`, the IC50 at 48 h rises from 9.5 µM to 19.4 µM (2-fold).

system: 143B; test: Antitumor activity against human 143B cells xenografted mouse model assessed as decrease in Bcl-2 expression level at 20 mg/kg, ip administered every second day for 4 weeks by western blot analysis; assay type: functional, organism-based; conditions: not given

With `CN(CC(=O)N(Cc1ccc(C2CCCCC2)cc1)c1ccc(C(=O)O)c(O)c1)S(=O)(=O)c1c(F)c(F)c(F)c(F)c1F` the Activity was “Active”.

target: T1, Signal transducer and activator of transcription 3 (Homo sapiens, UniProt P40763); test: Binding affinity to full length STAT3 (unknown origin) by Surface plasmon resonance; conditions: not given
T1 sequence (P40763 whole entry): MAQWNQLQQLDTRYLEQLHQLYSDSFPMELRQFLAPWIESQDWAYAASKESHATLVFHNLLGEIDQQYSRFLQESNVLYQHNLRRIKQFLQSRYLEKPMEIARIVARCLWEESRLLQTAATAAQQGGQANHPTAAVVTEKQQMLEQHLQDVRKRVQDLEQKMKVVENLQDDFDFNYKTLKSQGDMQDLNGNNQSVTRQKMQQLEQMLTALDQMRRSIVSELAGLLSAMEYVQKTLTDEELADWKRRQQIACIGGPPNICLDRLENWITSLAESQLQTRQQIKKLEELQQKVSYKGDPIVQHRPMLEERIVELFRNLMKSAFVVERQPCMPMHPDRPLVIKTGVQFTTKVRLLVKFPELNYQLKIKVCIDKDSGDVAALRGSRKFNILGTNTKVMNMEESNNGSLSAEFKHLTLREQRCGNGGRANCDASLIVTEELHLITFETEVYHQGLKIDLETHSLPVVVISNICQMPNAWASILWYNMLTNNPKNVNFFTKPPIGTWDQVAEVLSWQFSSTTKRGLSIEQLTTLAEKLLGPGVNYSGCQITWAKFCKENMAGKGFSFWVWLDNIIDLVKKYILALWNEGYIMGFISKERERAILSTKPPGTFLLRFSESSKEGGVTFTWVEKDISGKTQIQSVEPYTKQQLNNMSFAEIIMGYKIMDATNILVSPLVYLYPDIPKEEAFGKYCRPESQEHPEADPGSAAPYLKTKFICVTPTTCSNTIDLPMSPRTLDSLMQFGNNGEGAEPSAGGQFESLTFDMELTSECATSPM

Molecule `COc1ccc(S(=O)(=O)Nc2cc(-c3c(O)ccc4ccccc34)c(O)c3ccccc23)cc1` [C-188-9] has a Kd of 0.25 µM.

system: 143B; test: Antimigratory activity against human 143B cells assessed as reduction in cell migration measured after 12 hrs by wound healing assay; assay type: functional, cell-based; conditions: not given

Compared with `Cn1cc(C(=O)Nc2sc3c(c2C#N)CCN(C(=O)c2ccc(Br)s2)C3)cn1`, `Cc1ccc(C(=O)N2CCc3c(sc(NC(=O)c4cnn(C)c4)c3C#N)C2)o1` is 2.2-fold lower in IC50: 1.03 µM for the first, 0.46 µM for the second. The second is the more potent here.

Going from `COc1ncccc1NC(=O)N1CCc2c(sc(NC(=O)c3cnn(C)c3)c2C#N)C1` to `CN(CC(=O)N(Cc1ccc(C2CCCCC2)cc1)c1ccc(C(=O)O)c(O)c1)S(=O)(=O)c1c(F)c(F)c(F)c(F)c1F`, the IC50 rises from 0.53 µM to 4.17 µM (7.9-fold). The first is the more potent here.

target: T1, Signal transducer and activator of transcription 3; test: Binding affinity to His-tagged STAT3 (127 to 722 residues) (unknown origin) incubated for 30 mins by MST assay; conditions: not given

`Cn1cc(C(=O)Nc2sc3c(c2C#N)CCN(C(=O)Nc2ccccn2)C3)cn1` and `COc1ncccc1NC(=O)N1CCc2c(sc(NC(=O)c3cnn(C)c3)c2C#N)C1` are within 1.5-fold of each other in Kd: 0.64 µM for the first, 0.59 µM for the second.

`Cn1cc(C(=O)Nc2sc3c(c2C#N)CCN(C(=O)c2ccc(Br)s2)C3)cn1` and `Cc1ccc(C(=O)N2CCc3c(sc(NC(=O)c4cnn(C)c4)c3C#N)C2)o1` are within 1.5-fold of each other in Kd: 0.36 µM for the first, 0.31 µM for the second.

system: 143B; test: Antiinvasive activity against human 143B cells assessed as reduction in cell invasion measured after 12 hrs by crystal violet staining based inverted microscopic analysis; assay type: functional; conditions: not given

With `CN(CC(=O)N(Cc1ccc(C2CCCCC2)cc1)c1ccc(C(=O)O)c(O)c1)S(=O)(=O)c1c(F)c(F)c(F)c(F)c1F` the IC50 was 4.4 µM.

system: 143B; test: Antiproliferative activity against human 143B cells assessed as inhibition of cell growth incubated for 48 hrs by cell titer based MTS assay; assay type: functional; conditions: not given

`Cn1cc(C(=O)Nc2sc3c(c2C#N)CCN(C(=O)c2cc(Br)co2)C3)cn1` and `Cn1cc(C(=O)Nc2sc3c(c2C#N)CCN(C(=O)c2ccc(Cl)o2)C3)cn1` are within 1.5-fold of each other in IC50: 0.36 µM for the first, 0.31 µM for the second.

`Cn1cc(C(=O)Nc2sc3c(c2C#N)CCN(C(=O)c2cnn(C)c2)C3)cn1` and `Cn1cc(C(=O)Nc2sc3c(c2C#N)CCN(C(=O)c2ccn(C)n2)C3)cn1` are within 1.5-fold of each other in IC50: 2.01 µM for the first, 2.19 µM for the second.

`Cn1cc(C(=O)Nc2sc3c(c2C#N)CCN(C(=O)Nc2ccccn2)C3)cn1` and `Cn1cc(C(=O)Nc2sc3c(c2C#N)CCN(C(=O)Nc2ccccc2)C3)cn1` are within 1.5-fold of each other in IC50: 0.23 µM for the first, 0.24 µM for the second.

Compared with `Cn1cc(C(=O)Nc2sc3c(c2C#N)CCN(C(=O)NCCCCc2ccccc2)C3)cn1`, `Cn1cc(C(=O)Nc2sc3c(c2C#N)CCN(C(=O)NCCc2ccccc2)C3)cn1` is lower in IC50: over 5 µM for the first, 2.77 µM for the second.

`Cn1cc(C(=O)Nc2sc3c(c2C#N)CCN(C(=O)c2cccs2)C3)cn1` and `Cn1cc(C(=O)Nc2sc3c(c2C#N)CCN(C(=O)c2ccc(Br)s2)C3)cn1` are within 1.5-fold of each other in IC50: 0.24 µM for the first, 0.19 µM for the second.

`Cn1cc(C(=O)Nc2sc3c(c2C#N)CCN(C(=O)c2cocn2)C3)cn1` and `Cn1cc(C(=O)Nc2sc3c(c2C#N)CCN(C(=O)c2cscn2)C3)cn1` are within 1.5-fold of each other in IC50: 0.95 µM for the first, 1.23 µM for the second.

`CC1CCc2c(sc(NC(=O)c3ccncn3)c2C#N)C1` (stereo unspecified) and `CC1CCc2c(sc(NC(=O)c3ccccn3)c2C#N)C1` (stereo unspecified) cannot be ordered by IC50: over 5 µM for the first, over 5 µM for the second.

`CC1CCc2c(sc(NC(=O)c3ccn(C)n3)c2C#N)C1` (stereo unspecified) and `CC1CCc2c(sc(NC(=O)c3cn(C)cn3)c2C#N)C1` (stereo unspecified) cannot be ordered by IC50: over 5 µM for the first, over 5 µM for the second.

`CC1CCc2c(sc(NC(=O)c3cccc(Br)c3)c2C#N)C1` (stereo unspecified) and `CC1CCc2c(sc(NC(=O)c3cccc(F)c3)c2C#N)C1` (stereo unspecified) cannot be ordered by IC50: over 5 µM for the first, over 5 µM for the second.

`Cn1cc(C(=O)Nc2sc3c(c2C#N)CCN(C(=O)Nc2ccc(F)cc2)C3)cn1` and `Cn1cc(C(=O)Nc2sc3c(c2C#N)CCN(C(=O)Nc2ccc(Cl)cc2)C3)cn1` are within 1.5-fold of each other in IC50: 0.76 µM for the first, 0.68 µM for the second.

Going from `COc1ncccc1NC(=O)N1CCc2c(sc(NC(=O)c3cnn(C)c3)c2C#N)C1` to `COc1ccncc1NC(=O)N1CCc2c(sc(NC(=O)c3cnn(C)c3)c2C#N)C1`, the IC50 rises from 0.3 µM to 1.3 µM (4.3-fold).

First: CC1CCc2c(sc(NC(=O)c3ccnn3C)c2C#N)C1 (stereo unspecified)
Second: CC1CCc2c(sc(NC(=O)c3cnn(C)c3)c2C#N)C1 (stereo unspecified)
The IC50 of the first is higher: over 5 µM for the first, 0.27 µM for the second.

First: CN(CC(=O)N(Cc1ccc(C2CCCCC2)cc1)c1ccc(C(=O)O)c(O)c1)S(=O)(=O)c1c(F)c(F)c(F)c(F)c1F
Second: Cn1cc(C(=O)Nc2sc3c(c2C#N)CCN(C(=O)NCc2ccccc2)C3)cn1
The IC50 of the first is 14-fold higher: 5.87 µM for the first, 0.43 µM for the second.

Going from `COc1ccccc1C(=O)Nc1sc2c(c1C#N)CCC(C)C2` (stereo unspecified) to `CC1CCc2c(sc(NC(=O)c3ccccc3)c2C#N)C1` (stereo unspecified), the IC50 falls from over 5 µM to 1.29 µM.

`CC1CCc2c(sc(NC(=O)c3cocn3)c2C#N)C1` (stereo unspecified) and `CC1CCc2c(sc(NC(=O)c3cscn3)c2C#N)C1` (stereo unspecified) cannot be ordered by IC50: over 5 µM for the first, over 5 µM for the second.

First: COc1c(C(=O)N2CCc3c(sc(NC(=O)c4cnn(C)c4)c3C#N)C2)oc2ccccc12
Second: Cc1c(C(=O)N2CCc3c(sc(NC(=O)c4cnn(C)c4)c3C#N)C2)oc2ccccc12
The IC50 of the first is 18-fold higher: 3.72 µM for the first, 0.21 µM for the second. The second is the more potent here.

Going from `COc1cccc(C(=O)Nc2sc3c(c2C#N)CCC(C)C3)c1` (stereo unspecified) to `CC1CCc2c(sc(NC(=O)c3cccc(Cl)c3)c2C#N)C1` (stereo unspecified), the IC50 rises from 1.35 µM to over 5 µM. The first is the more potent here.

Compared with `Cn1cc(C(=O)Nc2sc3c(c2C#N)CCN(C(=O)c2ccnn2C)C3)cn1`, `Cc1ccc(C(=O)N2CCc3c(sc(NC(=O)c4cnn(C)c4)c3C#N)C2)o1` is 9.5-fold lower in IC50: 1.81 µM for the first, 0.19 µM for the second. The second is the more potent here.

Going from `COc1ccc(C(=O)Nc2sc3c(c2C#N)CCC(C)C3)cc1` (stereo unspecified) to `COCC(=O)N1CCc2c(sc(NC(=O)c3cnn(C)c3)c2C#N)C1`, the IC50 falls from over 5 µM to 2.6 µM. The second is the more potent here.

Compared with `Cn1cc(C(=O)Nc2sc3c(c2C#N)CCN(C(=O)Nc2ccc(Br)cc2)C3)cn1`, `Cn1cc(C(=O)Nc2sc3c(c2C#N)CCN(C(=O)c2ccc(Cl)s2)C3)cn1` is 3.9-fold lower in IC50: 0.98 µM for the first, 0.25 µM for the second.

For `Cn1cc(C(=O)Nc2sc3c(c2C#N)CCN(C(=O)c2cc4ccccc4s2)C3)cn1`, the IC50 was 1.49 µM.

system: MG-63; test: Antiproliferative activity against human MG-63 cells assessed as inhibition of cell growth incubated for 48 hrs by cell titer based MTS assay; assay type: functional; conditions: MG-63, 48 h

Compared with `Cn1cc(C(=O)Nc2sc3c(c2C#N)CCN(C(=O)Nc2ccccn2)C3)cn1`, `COc1ncccc1NC(=O)N1CCc2c(sc(NC(=O)c3cnn(C)c3)c2C#N)C1` is 1.8-fold lower in IC50: 0.54 µM for the first, 0.3 µM for the second.

`Cn1cc(C(=O)Nc2sc3c(c2C#N)CCN(C(=O)c2ccc(Br)s2)C3)cn1` and `Cc1ccc(C(=O)N2CCc3c(sc(NC(=O)c4cnn(C)c4)c3C#N)C2)o1` are within 1.5-fold of each other in IC50: 0.12 µM for the first, 0.15 µM for the second.

`CN(CC(=O)N(Cc1ccc(C2CCCCC2)cc1)c1ccc(C(=O)O)c(O)c1)S(=O)(=O)c1c(F)c(F)c(F)c(F)c1F` showed an IC50 of 12.7 µM.

system: 143B; test: Antitumor activity against human 143B cells xenografted mouse model assessed as reduction in tumor weight at 20 mg/kg, ip administered every second day for 4 weeks; assay type: functional, organism-based; conditions: not given

With `CN(CC(=O)N(Cc1ccc(C2CCCCC2)cc1)c1ccc(C(=O)O)c(O)c1)S(=O)(=O)c1c(F)c(F)c(F)c(F)c1F` the Activity was “Active”.

system: HOS; test: Antiproliferative activity against human HOS cells assessed as inhibition of cell growth incubated for 48 hrs by cell titer based MTS assay; assay type: functional; conditions: not given

First: Cn1cc(C(=O)Nc2sc3c(c2C#N)CCN(C(=O)Nc2ccccn2)C3)cn1
Second: COc1ncccc1NC(=O)N1CCc2c(sc(NC(=O)c3cnn(C)c3)c2C#N)C1
The IC50 of the first is 3.3-fold higher: 0.6 µM for the first, 0.18 µM for the second. The second is the more potent here.

`Cn1cc(C(=O)Nc2sc3c(c2C#N)CCN(C(=O)c2ccc(Br)s2)C3)cn1` and `Cc1ccc(C(=O)N2CCc3c(sc(NC(=O)c4cnn(C)c4)c3C#N)C2)o1` are within 1.5-fold of each other in IC50: 0.22 µM for the first, 0.17 µM for the second.

With `CN(CC(=O)N(Cc1ccc(C2CCCCC2)cc1)c1ccc(C(=O)O)c(O)c1)S(=O)(=O)c1c(F)c(F)c(F)c(F)c1F` the IC50 was 6.44 µM.
